Drawing on ChEMBL document CHEMBL4364302, “4-Aminoquinoline-based compounds as antileishmanial agents that inhibit the energy metabolism of Leishmania” (Eur J Med Chem, 2019), this text covers IC50 and selectivity ratio for 3 molecules.

Data set [1] concerns THP-1. As to the kind of experiment: Cytotoxicity against human THP1 cells assessed as cell viability measured after 72 hrs by MTT assay. The class given is cell-based. The note with it: THP-1, 72 h. In general terms: Tetrazolium assays rely on reduction of a dye to a coloured formazan, in cell work by metabolically active cells.
The subject of data set [2] is BMDM. The experiment in a line: Cytotoxicity against mouse BMDM cells assessed as cell viability measured after 72 hrs by MTT assay. The class given is cell-based.
The test system of data set [3] is HMEC-1. The experiment in a line: Cytotoxicity against human HMEC1 cells assessed as cell viability measured after 72 hrs by MTT assay. The class given is cell-based. The note with it: HMEC-1, 72 h.
Data set [4] relates to CFPAC-1. The experiment in a line: Cytotoxicity against human CFPAC-1 cells assessed as cell viability measured after 72 hrs by MTT assay. The class given is cell-based. The note with it: CFPAC-1, 72 h.
The test system of data set [5] is Leishmania infantum. As to the kind of experiment: Antileishmanial activity against promastigote stage of Leishmania infantum MHOM/TN/80/IPT1 assessed as reduction in parasite viability measured after 72 hrs by MTT assay. Format: functional, organism-based. The note with it: MHOM/TN/80/IPT1, 72 h.
Data set [6] has as its system Leishmania infantum. The experiment in a line: Antileishmanial activity against intracellular amastigote stage of Leishmania infantum MHOM/TN/80/IPT1 assessed as reduction in parasite viability measured after 72 hrs by MTT assay. The note with it: MHOM/TN/80/IPT1, 72 h. Format: functional, organism-based.
Data set [7] is described as follows: Selectivity index, ratio of IC50 for human THP1 cells to IC50 for intracellular amastigote stage of Leishmania infantum. Format: toxicity, cell-based. The note with it: read-out: Ratio IC50.
The nature of data set [8]: Selectivity index, ratio of IC50 for mouse BMDM cells to IC50 for intracellular amastigote stage of Leishmania infantum. Format: toxicity, cell-based. The note with it: read-out: Ratio IC50.
Data set [9] can be described thus: Selectivity index, ratio of IC50 for human HMEC1 cells to IC50 for intracellular amastigote stage of Leishmania infantum. Format: toxicity, cell-based. The note with it: read-out: Ratio IC50.
Data set [10] is described as follows: Selectivity index, ratio of IC50 for human CFPAC-1 cells to IC50 for intracellular amastigote stage of Leishmania infantum. Format: toxicity, cell-based. The note with it: read-out: Ratio IC50.
In data set [11] the test system is Leishmania braziliensis. As to the kind of experiment: Antileishmanial activity against promastigote stage of Leishmania braziliensis MHOM/IT/2006/ISS2848 assessed as reduction in parasite viability measured after 72 hrs by MTT assay. The class given is functional, organism-based. The note with it: MHOM/IT/2006/ISS2848, 72 h.
The test system of data set [12] is Leishmania braziliensis. As to the kind of experiment: Antileishmanial activity against intracellular amastigote stage of Leishmania braziliensis MHOM/IT/2006/ISS2848 assessed as reduction in parasite viability measured after 72 hrs by MTT assay. The note with it: MHOM/IT/2006/ISS2848, 72 h. The class given is functional, organism-based.
Data set [13] deals with Leishmania tropica. As to the kind of experiment: Antileishmanial activity against promastigote stage of Leishmania tropica MHOM/IT/2012/ISS3130 assessed as reduction in parasite viability measured after 72 hrs by MTT assay. The class given is functional, organism-based. The note with it: MHOM/IT/2012/ISS3130, 72 h.
For data set [14], the system named is Leishmania tropica. As to the kind of experiment: Antileishmanial activity against intracellular amastigote stage of Leishmania tropica MHOM/IT/2012/ISS3130 assessed as reduction in parasite viability measured after 72 hrs by MTT assay. The class given is functional, organism-based. The note with it: MHOM/IT/2012/ISS3130, 72 h.
In data set [15] the test system is Leishmania infantum. The experiment in a line: Antileishmanial activity against promastigote stage of Leishmania infantum LEM3049 isolate measured after 72 hrs by MTT assay. The class given is functional, organism-based.
The test system of data set [16] is Leishmania infantum. The experiment in a line: Antileishmanial activity against antimony resistant promastigote stage of Leishmania infantum LEM3323 isolate measured after 72 hrs by MTT assay. Format: functional, organism-based.
The test system of data set [17] is Leishmania infantum. As to the kind of experiment: Antileishmanial activity against miltefosine resistant promastigote stage of Leishmania infantum LEM5159 isolate measured after 72 hrs by MTT assay. The class given is functional, organism-based.
The test system of data set [18] is Leishmania infantum. As to the kind of experiment: Antileishmanial activity against miltefosine and paromomycin resistant promastigote stage of Leishmania infantum LEM2126 isolate measured after 72 hrs by MTT assay. The class given is functional, organism-based.
In data set [19] the test system is Leishmania infantum. As to the kind of experiment: Antileishmanial activity against intracellular amastigote stage of Leishmania infantum LEM3049 isolate measured after 72 hrs by MTT assay. Format: functional, organism-based.
In data set [20] the test system is Leishmania infantum. As to the kind of experiment: Antileishmanial activity against antimony resistant intracellular amastigote stage of Leishmania infantum LEM3323 isolate measured after 72 hrs by MTT assay. The class given is functional, organism-based.
Data set [21] deals with Leishmania infantum. The experiment in a line: Antileishmanial activity against miltefosine resistant intracellular amastigote stage of Leishmania infantum LEM5159 isolate measured after 72 hrs by MTT assay. The class given is functional, organism-based.
For data set [22], the system named is Leishmania infantum. The experiment in a line: Antileishmanial activity against miltefosine and paromomycin resistant intracellular amastigote stage of Leishmania infantum LEM2126 isolate measured after 72 hrs by MTT assay. Format: functional, organism-based.
Data set [23] can be described thus: Selectivity index, ratio of IC50 for human THP1 cells to IC50 for intracellular amastigote stage of Leishmania infantum LEM3049 isolate. The note with it: read-out: Ratio IC50. Format: toxicity, cell-based.
Data set [24] is described as follows: Selectivity index, ratio of IC50 for human THP1 cells to IC50 for antimony resistant intracellular amastigote stage of Leishmania infantum LEM3323 isolate. The class given is toxicity, cell-based. The note with it: read-out: Ratio IC50.
A short description of data set [25]: Selectivity index, ratio of IC50 for human THP1 cells to IC50 for miltefosine resistant intracellular amastigote stage of Leishmania infantum LEM5159 isolate. Format: toxicity, cell-based. The note with it: read-out: Ratio IC50.
The nature of data set [26]: Selectivity index, ratio of IC50 for human THP1 cells to IC50 for miltefosine and paromomycin resistant intracellular amastigote stage of Leishmania infantum LEM2126 isolate. The note with it: read-out: Ratio IC50. Format: toxicity, cell-based.

Each structure is given as a SMILES string. Bounds are passed on as bounds.

The IC50 is the concentration at which inhibition is half-maximal. On to `C[C@@H]1[C@H](O)[C@@H](C)/C=C/C=C/C=C/C=C/C=C/C=C/C=C/[C@H](O[C@@H]2O[C@H](C)[C@@H](O)[C@H](N)[C@@H]2O)C[C@@H]2O[C@](O)(C[C@@H](O)C[C@@H](O)[C@H](O)CC[C@@H](O)C[C@@H](O)CC(=O)O[C@H]1C)C[C@H](O)[C@H]2C(=O)O` [AMPHOTERICIN B], for which the IC50 in [1] is greater than 10000 nM; in data set [2], greater than 10000 nM; in data set [3], greater than 10000 nM; in data set [4], greater than 10000 nM; in [5], 90 to 150 nM; in data set [6] it was 180 nM. In addition, the IC50 in [11] is 183 nM; in data set [12] it was 200 nM; in data set [13] (read-out: IC50), 120 nM; in [14], 160 nM; in data set [15], 60 nM; in [16], 70 nM. The half-inhibitory concentration (IC50) in data set [17] amounted to 50 nM; in data set [18] it was 100 nM; in data set [19], 170 nM; in data set [20], 180 nM; in data set [21] it was 160 nM; in [22] it was 160 nM. In addition, the selectivity ratio in data set [7] was greater than 50; in data set [8], greater than 50; in data set [9], greater than 50; in data set [10], greater than 50; in data set [23], 164; in data set [24], 155. The selectivity ratio in data set [25] and in data set [26] was 174 in each case.
As for `CCCCCCCCCCCCCCCCOP(=O)([O-])OCC[N+](C)(C)C` [MILTEFOSINE], the 50% inhibitory concentration (IC50) in data set [5] amounted to 1430 nM; in data set [11], 7590 nM; in data set [12], 890 nM; in [13], 10400 nM; in [14], 1150 nM.
For `NC[C@@H]1O[C@H](O[C@H]2[C@@H](O)[C@H](O[C@@H]3[C@@H](O)[C@H](N)C[C@H](N)[C@H]3O[C@H]3O[C@H](CO)[C@@H](O)[C@H](O)[C@H]3N)O[C@@H]2CO)[C@H](N)[C@@H](O)[C@@H]1O` [PAROMOMYCIN], the IC50 in [5] was 427000 nM.
